Assays:
[1] = Mass transfer of polyol-drug formulations from substrate in device with puffing equipment; effluent collected on Cambridge pads, weighed, nicotine by GC/MS; conditions: after heating in device with PEG
[2] = aerosol formed from the polyol; cited from earlier work

Structure (SMILES) | decomposition products from nicotine in the chromatograms (GC/MS of extracts of collected effluent) [1] | MMAD [2]
CN1CCCC1c1cccnc1.O=C(O)C(O)C(O)C(=O)O (stereo not shown) [NIC B, nicotine bitartrate] | no measurable decomposition products | 
OCC(O)CO [Glycerin] |  | less than 1.5 micrometers
CC(O)CO (stereo not shown) [Propylene Glycol (PEG), Propylene Glycol] |  | less than 0.9 micrometers
CN1CCCC1c1cccnc1 (stereo not shown) [NIC, nicotine] | no measurable decomposition products | 
